From patent US20230391766A1, “1-(2-(4-CYCLOPROPYL-1H-1,2,3-TRIAZOL-1-YL)ACETYL)-4-HYDROXY-N-(BENZYL)PYRROLIDIN E-2-CARBOXAMIDE DERIVATIVES AS VHL INHIBITORS FOR THE TREATMENT OF ANEMIA AND CANCER” (Genentech, Inc., priority 2020, published 2023)

What was measured:
VHL Elongin B/C complex = target: T1, VHL Elongin B/C complex (Homo sapiens, UniProt P40337); assay: Fluorescence Polarization (FP) VHL Binding Assay; settings: fluorescence polarization tracer competition; geometric mean where more than one measurement
T1 construct: amino acids E55-D213 of human VHL with N-terminal His6 tag; His6 (N); TEV-protease cleavage site (N); made in house; host or cells: E. coli
T1 sequence (P40337 55-213): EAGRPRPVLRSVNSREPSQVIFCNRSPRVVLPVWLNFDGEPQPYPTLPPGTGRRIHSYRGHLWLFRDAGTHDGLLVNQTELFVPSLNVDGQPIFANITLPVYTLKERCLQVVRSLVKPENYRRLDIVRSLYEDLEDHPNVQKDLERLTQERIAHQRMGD
T1 sequence (Q15370 whole entry partner, the tested form may be a part): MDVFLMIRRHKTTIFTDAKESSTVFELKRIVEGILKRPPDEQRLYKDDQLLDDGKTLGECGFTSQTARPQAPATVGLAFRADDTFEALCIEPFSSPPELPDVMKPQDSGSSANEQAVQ
T1 sequence (Q15369 17-112 partner limits assumed): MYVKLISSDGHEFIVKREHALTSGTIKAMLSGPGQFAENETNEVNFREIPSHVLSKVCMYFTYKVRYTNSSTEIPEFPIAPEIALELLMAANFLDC
Description: The binding of test compounds to the VHL Elongin B/C complex was measured using a fluorescence polarization tracer competition assay. The VHL/Elongin B/C protein complex used in the assay was generated as follows. The coding region for amino acids E55-D213 of human VHL with N-terminal His6 tag with a TEV-protease cleavage site was co-expressed with Elongin B (residues M1-Q118) and Elongin C (Residues M17-C112) in E. coli. The VHL/Elongin B/C complex was purified using an affinity nickel column, anion exchange HiTrap QP HP column chromatography, and gel filtration using a Superdex 75 26/60 column. The purified VHL/Elongin B/C complex was dialyzed into formulation buffer: 20 mM Bis-Tris pH7.0, 150 mM NaCl, 1 mM DTT. A VHL fluorescence polarization probe consisted of a VHL ligand coupled to carboxytetramethylrhodamine (TAMRA); (2S,4R)—N-(2-(2-(3′,6′-bis(dimethylamino)-3-oxo-3H-spiro[isobenzofuran-1,9′-xanthene]-5-carboxamido)ethoxy)-4-(4-methylthiazol-5-yl)benzyl)-4-hydroxy-1-((R)-3-methyl-2-(3-methylisoxazol-5-yl)butanoyl)pyrrolidine-2-carboxamide. […] DMSO was dispensed into wells designated for “VHL control” (without compound) wells. The “Assay Buffer” consisted of 50 mM Tris pH 8.0, 120 mM NaCl, 0.005% Nonidet P-40, and 1% DMSO (v/v). Assay Buffer containing 5.28 μM VHL Elongin B/C complex was prepared and 5 μl dispensed using a BioRapTR (Beckman Coulter) into each well of the assay plate. Assay Buffer was also dispensed into “no VHL control” wells using the same method. A “pre-assay” fluorescence measurement was made using an Infinite® M1000 (Tecan) plate reader (Excitation 530 nm, Emission 574 nm, Bandwidth 10 nm). Assay Buffer containing 3.34 nM of the VHL FP probe was prepared in Assay Buffer and 5 μl dispensed into each well of the assay plate using a BioRapTR (Beckman Coulter). The final VHL/Elongin B/C protein concentration is 2.64 nM and the final probe concentration is 1.67 nM. Assay plates were briefly centrifuged and incubated for 1 hour at room temperature. “Post-assay” fluorescence polarization measurements were made as described for the “pre-assay” fluorescence measurement. Fluorescence polarization was calculated for each sample; taking into account the “pre-assay” fluorescence measurements and subtracting the fluorescence signal of the compound/VHL only (“pre-assay”) measurements from the “post-assay” fluorescence polarization measurements, for each plane of polarization. The data were analyzed using Genedata Screener software and normalized to the “no VHL control” and “VHL control” (without compound). IC50 values were calculated using a four parameter curve fit (Robust method).

VHL [1] = target: T2, VHL (Homo sapiens, UniProt P40337); assay: VHL HEK-293 BRET Assay (VHL NanoBRET Target Engagement Assay); assay type: cell-based; settings: for IC50: HEK 293 RT VHL-NanoLuc stable cells, 1 uM tracer, 2 hours, geometric mean where more than one measurement, read-out: VHL binding in cells (HEK293 nanoBRET); for Ratio cell permeability shift: ratio not defined
T2 construct: expressed in transfected cells
T2 sequence (P40337 whole entry): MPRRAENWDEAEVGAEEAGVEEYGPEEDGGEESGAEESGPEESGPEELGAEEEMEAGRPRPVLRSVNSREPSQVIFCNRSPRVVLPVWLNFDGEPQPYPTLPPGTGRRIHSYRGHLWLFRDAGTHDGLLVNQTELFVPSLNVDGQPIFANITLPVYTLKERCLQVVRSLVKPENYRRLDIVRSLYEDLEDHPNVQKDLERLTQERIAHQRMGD
Description: (§1) The VHL NanoBRET™ Target Engagement Assay analyzes the apparent affinity of test compounds for VHL in cells by competitive displacement of a VHL NanoBRET™ tracer reversibly bound to a NanoLuc® VHL fusion protein stably expressed in the cells.
(§2) 50 nL of control compound (10 mM; parental unlabeled VHL antagonist; see structure below) and 50 nL of DMSO (negative control) were dispensed into the appropriate control wells. DMSO was backfilled to a final volume of 50 nL as required. […] Max Signal control wells consisted of DMSO only treated wells. Minimum Signal control wells contained of 10 uM parental unlabeled VHL antagonist (control compound—see structure below). […] Background Signal control wells were prepared without tracer for background correction steps.
(§3) The raw BRET ratio values were calculated by dividing the acceptor emission value (610 nm) by the donor emission value (460 nm) for each sample. To correct for background, the BRET ratio in the absence of tracer (average of no-tracer control samples) was subtracted from the BRET ratio of each sample. Raw BRET units were converted to milliBRET units (mBU) by multiplying each raw BRET value by 1,000. The normalized NanoBRET™ signal was calculated relative to the Max Signal control wells (DMSO treated control wells) and the Minimum Signal control wells. Percentage inhibition was calculated relative to the Minimum Signal control and Maximum Signal control wells. IC50 values were derived by four parameter curve fitting using the Robust method.

VHL [2] = target: T2, VHL; assay: VHL nanoBRET (+ Digitonin); assay type: cell-based
Description: as §1, §2, §3

SMILES | IC50 (VHL Elongin B/C complex) | IC50 (VHL [1]) | Ratio cell permeability shift (VHL [1]) | EC50 (VHL [2])
Cc1ncsc1-c1ccc(CNC(=O)[C@@H]2C[C@@H](O)CN2C(=O)[C@@H](n2cc(C3CC3)nn2)C(C)(C)C)cc1 [Example S24, (2S,4R)-1-((S)-2-(4-cyclopropyl-1H-1,2,3-triazol-1-yl)-3,3-dimethylbutanoyl)-4-hydroxy-N-(4-(4-methylthiazol-5-yl)benzyl)pyrrolidine-2-carboxamide] | 10 nM | 10 nM | 1.22 | 10 nM
CC(C)(C)[C@@H](C(=O)N1C[C@H](O)C[C@H]1C(=O)N[C@H](Cc1ccc(-c2ccccc2)cc1)C(N)=O)n1cc(C2CC2)nn1 [Example S3, (2S,4R)—N—((R)-3-([1,1′-biphenyl]-4-yl)-1-amino-1-oxopropan-2-yl)-1-((S)-2-(4-cyclopropyl-JH-1,2,3-triazol-1-yl)-3,3-dimethylbutanoyl)-4-hydroxypyrrolidine-2-carboxamide] | 150 nM | 150 nM | 0.97 | 140 nM
CC(=O)NCCOCc1cn([C@H](C(=O)N2C[C@H](O)C[C@H]2C(=O)N[C@H](Cc2ccc(-c3ccccc3)cc2)C(N)=O)C(C)(C)C)nn1 [Example S14, (2S,4R)—N—((R)-3-([1,1′-biphenyl]-4-yl)-1-amino-1-oxopropan-2-yl)-1-((S)-2-(4-((2-acetamidoethoxy)methyl)-1H-1,2,3-triazol-1-yl)-3,3-dimethylbutanoyl)-4-hydroxypyrrolidine-2-carboxamide] | 80 nM | 20700 nM | 264.37 | –
Cc1ncsc1-c1ccc(CNC(=O)[C@@H]2C[C@@H](O)CN2C(=O)[C@@H](n2cc(Cc3ccccc3)nn2)C(C)(C)C)cc1 [Example S27, (2S,4R)-1-((S)-2-(4-benzyl-1H-1,2,3-triazol-1-yl)-3,3-dimethylbutanoyl)-4-hydroxy-N-(4-(4-methylthiazol-5-yl)benzyl)pyrrolidine-2-carboxamide] | 20 nM | 20 nM | 0.88 | 20 nM
